19 molecules from article PMC6151529, “Design, Synthesis and Biological Evaluation of N,N-Substituted Amine Derivatives as Cholesteryl Ester Transfer Protein Inhibitors” (Molecules : A Journal of Synthetic Chemistry and Natural …, 2017) can be followed below.

Structures are written as SMILES. A value given as a limit tells only on which side of the number the result lay.

A word on the IC50: it is the concentration that gives 50% inhibition.

One assay has as its target T1, CETP (Homo sapiens, UniProt P11597).
T1 construct: purchased Roar, New York, NY, USA RB-RPAK
T1 sequence (P11597 18-493): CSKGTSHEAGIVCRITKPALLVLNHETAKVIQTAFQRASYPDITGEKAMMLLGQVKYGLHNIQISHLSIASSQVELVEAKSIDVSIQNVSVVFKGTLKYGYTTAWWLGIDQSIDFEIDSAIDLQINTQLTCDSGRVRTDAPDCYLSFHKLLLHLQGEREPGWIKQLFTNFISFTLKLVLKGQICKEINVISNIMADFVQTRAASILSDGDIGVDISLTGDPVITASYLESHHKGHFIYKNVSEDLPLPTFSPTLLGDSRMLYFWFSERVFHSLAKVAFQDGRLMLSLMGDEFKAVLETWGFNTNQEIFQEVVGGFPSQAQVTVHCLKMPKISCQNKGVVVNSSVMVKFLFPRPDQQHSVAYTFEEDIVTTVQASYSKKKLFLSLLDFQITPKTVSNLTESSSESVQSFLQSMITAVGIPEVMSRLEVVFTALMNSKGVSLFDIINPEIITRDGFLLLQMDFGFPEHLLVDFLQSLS
The experiment in a line: CETP inhibitory activity, BODIPY-CE fluorescence assay (CETP RP Activity Assay Kit). Particulars: BODIPY-CE fluorescence assay. Format: biochemical. The procedure:
All tested compounds were dissolved in 100% DMSO, making sure the compound was dissolved totally. The solution was vibrated hard on an oscillator for more than 30 s and then stored in a nitrogen cabinet. The stock solutions (10 mM) were diluted with DMSO for an 8-point titration (1:5 serial dilutions) in a 96-well dilution plate. […] Compounds were tested at eight concentrations, and the fluorescence intensity were measured using a fluorometer (ExEm = 465/535 nm). The IC50 was determined from a curve fit of the data with each concentration tested three times.
`COc1ccc(C(C)C)cc1C1=C(CN(Cc2ccc(F)cc2)c2nnn(C)n2)CC(C)(C)CC1` [Compound 42, N-(4-Fluorobenzyl)-N-((2-(5-isopropyl-2-methoxyphenyl)-5,5-dimethylcyclohex-1-enyl)methyl)-2-methyl-2H-tetrazol-5-amine]: the “CETP inhibition (in words)” value is listed as “no CETP inhibition”.

Still in this assay, the particulars now being: read-out: IC50 (CETP inhibition).
For `COc1ccc(C(C)C)cc1C1=C(CN(Cc2cc(C(F)(F)F)cc(C(F)(F)F)c2)c2nn[nH]n2)CC(C)(C)CC1` [Compound 12, N-(3,5-Bis(trifluoromethyl)benzyl)-N-((2-(5-isopropyl-2-methoxyphenyl)-5,5-dimethylcyclohex-1-enyl)-methyl)-2H-tetrazol-5-amine], the concentration for half-maximal inhibition (IC50) is 2.84 ± 0.04 µM. The same measure, in the same setting: for `COC(=O)Cn1nnc(N(CC2=C(c3cc(C(C)C)ccc3OC)CCC(C)(C)C2)Cc2cc(C(F)(F)F)cc(C(F)(F)F)c2)n1` [Compound 13] the value was more than 50 µM; for `CCOC(=O)CCCn1nnc(N(CC2=C(c3cc(C(C)C)ccc3OC)CCC(C)(C)C2)Cc2cc(C(F)(F)F)cc(C(F)(F)F)c2)n1` [Compound 14, N-(3,5-Bis(trifluoromethyl)benzyl)-N-((2-(5-isopropyl-2-methoxyphenyl)-5,5-dimethylcyclohex-1-enyl)-methyl)-2H-tetrazol-5-amine-2-butyric acid ethyl ester], more than 50 µM; for `COc1ccc(C(C)C)cc1C1=C(CN(Cc2cc(C(F)(F)F)cc(C(F)(F)F)c2)c2nnn(CCN)n2)CC(C)(C)CC1` [Compound 15, 2-(2-Aminoethyl)-N-(3,5-Bis(trifluoromethyl)benzyl)-N-((2-(5-isopropyl-2-methoxyphenyl)-5,5-dimethyl-cyclohex-1-enyl)methyl)-2H-tetrazol-5-amine], 1.92 ± 0.1 µM. The same measure, in the same setting: to `COc1ccc(C(C)C)cc1C1=C(CN(Cc2cc(C(F)(F)F)cc(C(F)(F)F)c2)c2nnn(CCS(C)(=O)=O)n2)CC(C)(C)CC1` [Compound 16, N-(3,5-Bis(trifluoromethyl)benzyl)-N-((2-(5-isopropyl-2-methoxyphenyl)-5,5-dimethylcyclohex-1-enyl)-methyl)-2-(2-(methylsulfonyl)ethyl)-2H-tetrazol-5-amine] belongs 1.2 ± 0.01 µM; to `COc1ccc(C(C)C)cc1C1=C(CN(Cc2cc(C(F)(F)F)cc(C(F)(F)F)c2)c2nnn(CCCC(=O)O)n2)CC(C)(C)CC1` [Compound 18, N-(3,5-Bis(trifluoromethyl)benzyl)-N-((2-(5-isopropyl-2-methoxyphenyl)-5,5-dimethylcyclohex-1-enyl)-methyl)-2H-tetrazol-5-amine-2-butyric acid], 1.6 ± 0.02 µM.

For `COc1ccc(C(C)C)cc1C1=C(CN(Cc2cc(C(F)(F)F)cc(C(F)(F)F)c2)c2nnn(CCO)n2)CC(C)(C)CC1` [Compound 19, N-(3,5-Bis(trifluoromethyl)benzyl)-N-((2-(5-isopropyl-2-methoxyphenyl)-5,5-dimethylcyclohex-1-enyl)-methyl)-2H-tetrazol-5-amine-2-ethyl alcohol], the IC50 was 0.73 ± 0.09 µM. `COc1ccc(C(C)C)cc1C1=C(CN(Cc2cc(C(F)(F)F)cc(C(F)(F)F)c2)c2nnn(CCCCO)n2)CC(C)(C)CC1` [Compound 20]: the 50% inhibitory concentration (IC50) turned out to be 5.76 ± 0.03 µM.

As to `COc1ccc(C(C)C)cc1C1=C(CN(Cc2cc(C(F)(F)F)cc(C(F)(F)F)c2)c2nnn(CC(N)=O)n2)CC(C)(C)CC1` [Compound 21, 2-(5-((3,5-Bis(trifluoromethyl)benzyl)((2-(5-isopropyl-2-methoxyphenyl)-5,5-dimethylcyclohex-1-enyl)-methyl)amino)-2H-tetrazol-2-yl)acetamide], the IC50 is 20.06 ± 0.12 µM. On the same count and under the same terms, to `COc1ccc(C(C)C)cc1C1=C(CN(Cc2cc(C(F)(F)F)cc(C(F)(F)F)c2)c2noc(C)n2)CC(C)(C)CC1` [Compound 22, N-(3,5-Bis(trifluoromethyl)benzyl)-N-((2-(5-isopropyl-2-methoxyphenyl)-5,5-dimethylcyclohex-1-enyl)-methyl)-5-methyl-1,2,4-oxadiazol-3-amine] belongs 0.72 ± 0.06 µM; to `COc1ccc(C(C)C)cc1C1=C(CN(Cc2cc(C(F)(F)F)cc(C(F)(F)F)c2)C2CCN(CCO)CC2)CC(C)(C)CC1` [Compound 32, N-(3,5-Bis(trifluoromethyl)benzyl)-N-((2-(5-isopropyl-2-methoxyphenyl)-5,5-dimethylcyclohex-1-enyl)-methyl)piperidin-4-amine-1-ethyl alcohol], more than 50 µM; to `COc1ccc(C(C)C)cc1C1=C(CN(Cc2cc(C(F)(F)F)cc(C(F)(F)F)c2)C2CCN(CC(=O)O)CC2)CC(C)(C)CC1` [Compound 33, N-(3,5-Bis(trifluoromethyl)benzyl)-N-((2-(5-isopropyl-2-methoxyphenyl)-5,5-dimethylcyclohex-1-enyl)-methyl)piperidin-4-amine-1-acetic acid], more than 50 µM. Same read-out and setting: to `COc1ccc(C(C)C)cc1C1=C(CN(Cc2cc(C(F)(F)F)cc(C(F)(F)F)c2)C2CCN(C(=O)OC3CCOCC3)CC2)CC(C)(C)CC1` [Compound 34, N-(3,5-Bis(trifluoromethyl)benzyl)-N-((2-(5-isopropyl-2-methoxyphenyl)-5,5-dimethylcyclohex-1-enyl)-methyl)piperidin-4-amine-1-methanoic acid tetrahydro-2H-pyran-4-ol ester] belongs more than 50 µM. Same read-out and setting: for `CCOC(=O)N1CC(N(CC2=C(c3cc(C(C)C)ccc3OC)CCC(C)(C)C2)Cc2cc(C(F)(F)F)cc(C(F)(F)F)c2)C1` [Compound 35, N-(3,5-Bis(trifluoromethyl)benzyl)-N-((5′-isopropyl-2′-methoxy-4,4-dimethyl-3,4,5,6-tetrahydro-[1,1′-biphenyl]-2-yl)methyl)azetidin-3-amine-1-methanoic acid ethyl ester] the value was more than 50 µM. For the molecule `COc1ccc(C(C)C)cc1C1=C(CN(Cc2cc(C(F)(F)F)cc(C(F)(F)F)c2)C2CN(C(=O)OC(C)C)C2)CC(C)(C)CC1` [Compound 36, N-(3,5-Bis(trifluoromethyl)benzyl)-N-((5′-isopropyl-2′-methoxy-4,4-dimethyl-3,4,5,6-tetrahydro-[1,1′-biphenyl]-2-yl)methyl)azetidin-3-amine-1-methanoic acid isopropyl ester], the IC50 was more than 50 µM. On the same count and under the same terms, to `COc1ccc(C(C)C)cc1C1=C(CN(Cc2cc(C(F)(F)F)cc(C(F)(F)F)c2)C2CN(C(=O)OC3CCOCC3)C2)CC(C)(C)CC1` [Compound 37, N-(3,5-Bis(trifluoromethyl)benzyl)-N-((5′-isopropyl-2′-methoxy-4,4-dimethyl-3,4,5,6-tetrahydro-[1,1′-biphenyl]-2-yl)methyl)azetidin-3-amine-1-methanoic acid tetrahydro-2H-pyran-4-ol ester] belongs more than 50 µM.

Take `COc1ccc(C(C)C)cc1C1=C(CN(Cc2cc(C(F)(F)F)cc(C(F)(F)F)c2)c2nnn(C)n2)CC(C)(C)CC1` [Compound 40, N-(3,5-Bis(trifluoromethyl)benzyl)-N-((2-(5-isopropyl-2-methoxyphenyl)-5,5-dimethylcyclohex-1-enyl)-methyl)-2-methyl-2H-tetrazol-5-amine]: the 50% inhibitory concentration (IC50) is 0.81 ± 0.03 µM. The same measure, in the same setting: to `COc1ccc(C(C)C)cc1C1=C(CN(Cc2cccc(C(F)(F)F)c2)c2nnn(C)n2)CC(C)(C)CC1` [Compound 41, N-((2-(5-Isopropyl-2-methoxyphenyl)-5,5-dimethylcyclohex-1-enyl)methyl)-2-methyl-N-(3-(trifluoromethyl)-benzyl)-2H-tetrazol-5-amine] belongs 10.05 ± 0.06 µM. Still for that read-out and setting: to `COc1ccc(C(C)C)cc1C1=C(CN(Cc2ccc(F)cc2)c2nnn(C)n2)CC(C)(C)CC1` [Compound 42, N-(4-Fluorobenzyl)-N-((2-(5-isopropyl-2-methoxyphenyl)-5,5-dimethylcyclohex-1-enyl)methyl)-2-methyl-2H-tetrazol-5-amine] belongs more than 50 µM.
